According to ChEMBL document CHEMBL1201862, “PubChem BioAssay data set” (2004):
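How tested: cells in 96-well plates exposed to compound for 48 hours at five concentrations. Abbreviation: GI50, concentration required for 50% inhibition of growth.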 Active and inactive are the calls of the source. Rule as the data show it: active = GI50 up to about 1.1 µM and inactive = higher.

How the values were obtained:
Assay in all cases: NCI anticancer screen, dose series, 48 h
[1] = system: HOP-92
[2] = system: BT-549
[3] = system: SK-MEL-5
[4] = system: Malme-3M
[5] = system: M14
[6] = system: U-251
[7] = system: KM12
[8] = system: UO-31
[9] = system: HL-60
[10] = system: MCF7
[11] = system: NCI-H226
[12] = system: OVCAR-5
[13] = system: SN12C
[14] = system: A498
[15] = system: SNB-75
[16] = system: HT-29
[17] = system: EKVX
[18] = system: SF-295
[19] = system: HOP-62

Measured: GI50

C/C=C/C=C/C1=NN(c2cccc(S(=O)(=O)O)c2)C2(C1)SCC(=O)N2c1nc2ccccc2s1 (stereo unspecified)
inactive: [1] 26.2 µM | [2] 35.3 µM | [3] 85.5 µM | [4] > 100 µM | [5] > 100 µM | [6] 37.9 µM | [7] 54.6 µM | [8] 47.8 µM | [9] > 100 µM | [10] 47.4 µM | [11] 30.8 µM | [12] > 100 µM | [13] 41.2 µM | [14] 50.5 µM | [15] 68.5 µM | [16] > 100 µM | [17] 55.8 µM

Cc1nn(C(=O)Cc2ccccc2)c2c1C(c1ccc(N(C)C)cc1)SC(=N)N2 (stereo unspecified)
inactive: [2] 51.5 µM | [3] > 100 µM | [4] > 100 µM | [5] > 100 µM | [7] > 100 µM | [8] > 100 µM | [9] > 100 µM | [10] > 100 µM | [18] 48.8 µM | [11] > 100 µM | [13] > 100 µM | [14] > 100 µM | [15] 12.4 µM | [16] > 100 µM | [17] > 100 µM | [19] 38.3 µM

COc1cc2c(cc1OC)C1CN3C(=O)CCC3C(O)C1c1cc(OC)c(OC)cc1-2 (stereo unspecified)
inactive: [1] > 100 µM | [2] > 100 µM | [3] > 100 µM | [4] > 100 µM | [5] > 100 µM | [6] > 100 µM | [7] > 100 µM | [8] > 100 µM | [9] > 100 µM | [10] > 100 µM | [18] > 100 µM | [12] > 100 µM | [13] > 100 µM | [14] > 100 µM | [15] 20.9 µM | [16] > 100 µM | [17] > 100 µM | [19] > 100 µM

Nc1nnnn1CCO
inactive: [1] > 100 µM | [2] > 100 µM | [3] > 100 µM | [4] > 100 µM | [5] > 100 µM | [6] > 100 µM | [7] > 100 µM | [8] > 100 µM | [10] > 100 µM | [18] > 100 µM | [11] > 100 µM | [12] > 100 µM | [13] > 100 µM | [14] > 100 µM | [15] > 100 µM | [16] > 100 µM | [17] > 100 µM | [19] > 100 µM

O=C1NC(=O)C2(CCCCCC2)N1
inactive: [1] > 100 µM | [2] > 100 µM | [3] > 100 µM | [4] > 100 µM | [5] > 100 µM | [6] > 100 µM | [7] > 100 µM | [8] > 100 µM | [10] > 100 µM | [18] > 100 µM | [11] > 100 µM | [12] > 100 µM | [13] > 100 µM | [14] > 100 µM | [15] > 100 µM | [16] > 100 µM | [17] > 100 µM | [19] > 100 µM

OC1CSc2nc3ccccc3n2C1 (stereo unspecified)
inactive: [1] > 100 µM | [2] > 100 µM | [3] > 100 µM | [4] > 100 µM | [5] > 100 µM | [6] > 100 µM | [7] > 100 µM | [8] > 100 µM | [9] > 100 µM | [10] > 100 µM | [18] > 100 µM | [11] > 100 µM | [12] > 100 µM | [13] > 100 µM | [14] > 100 µM | [15] 17.9 µM | [16] > 100 µM | [17] > 100 µM

CC(C)CC(=O)OC[n+]1cccc(-c2c(COC(=O)NC(C)C)c(COC(=O)NC(C)C)c3n2CCC3)c1
inactive: [1] 26.6 µM | [2] 77.3 µM | [3] 58.5 µM | [4] 83.6 µM | [5] 61.4 µM | [6] 41.5 µM | [7] > 100 µM | [8] 31.3 µM | [10] 45.1 µM | [18] 39 µM | [11] > 100 µM | [12] 60.8 µM | [13] 36.9 µM | [14] 23.3 µM | [15] 39.8 µM | [16] 52.6 µM | [17] > 100 µM | [19] 41.7 µM

CC(C)(C)OC(=O)N(O)[C@@H]1CC[C@H](n2cnc3c(N)ncnc32)C1
inactive: [1] > 100 µM | [2] > 100 µM | [3] > 100 µM | [4] > 100 µM | [5] > 100 µM | [6] > 100 µM | [7] > 100 µM | [8] 96.8 µM | [10] > 100 µM | [18] > 100 µM | [11] > 100 µM | [12] > 100 µM | [13] > 100 µM | [14] > 100 µM | [15] > 100 µM | [16] > 100 µM | [17] > 100 µM | [19] > 100 µM
